# Values of other authors in PMC5073354, “Direct and indirect mechanisms of KLK4 inhibition revealed by structure and dynamics” (Scientific Reports, 2016).
# Columns and labels:
# [1] = system: Factor VIIa; conditions: FVIIa not bound to tissue factor
# From the text: Kallikreins are proteases that perform catalysis in organs with high zinc concentrations. The KLK4 inactivation by nickel described in this work is also proposed to apply to zinc binding to the same […]/[…] site[23]. A molecular understanding of zinc-mediated inhibition of members of the kallikrein family is emerging with three types of inhibition seen[41]. […] This is proposed to inhibit activity by […][42]. Second, zinc binding to residues in loop IV (also known ...
# [2] = system: KLK4; conditions: library of tetrapeptide pNA substrates with invariant P1 Arg
# From the text: We previously tested the amidolytic activity of KLK4 against a focused library of synthetic tetrapeptide substrates with an invariant P1 Arg[13]. […] To investigate the structural basis for increased potency, we solved the crystal struct ...
# [3] = system: KLK4; conditions: ion binding to residues more than 20 Å from the active site
# From the text: To gain more insight into this mode of inhibition, we crystallized KLK4 under identical conditions but in the absence of PABA inhibitor.
# [4] = system: KLK4
# From the text: Since the trypsin-SFTI-1 and matriptase-SFTI-1 protease/inhibitor complexes have been characterized by X-ray crystallography, a structural context is available to dissect relative potencies. […] To examine the interaction between KLK4 and inhibitor we determined the X-ray crystal structure of a KLK4-SFTI-1 complex to 1.0 Å resolution. The inhibitor structure is well-resolved except for missing density in the backbone of Pro13 and the side chain of Asp14. The contact β-sheet of SFTI-1 has multiple interactions with the KLK4 active site, including the P1 Lys5 inserting into the S1 pocket of KLK4 (Fig. 1B). || When comparing the structure of SFTI-1 in the context of trypsin, matriptase and KLK4, differences in the interface correlate to the potency of inhibition. […] Comparison of the structures provides arguments to support this lowered inhibition. SFTI-1 has less buried surface area and fewer interactions with KLK4 than with either trypsin or matriptase (Table S1). SFTI-1 behaves as a Laskowski inhibitor, interacting with its targets following the classi ... || (+ 1 further places)
# [5] = system: matriptase
# From the text: (§1) Since the trypsin-SFTI-1 and matriptase-SFTI-1 protease/inhibitor complexes have been characterized by X-ray crystallography, a structural context is available to dissect relative potencies.
# [6] = system: trypsin
# From the text: as §1
molecule,measurement,setting,value
[Ca+2] [calcium],reversal of zinc inhibition of FVIIa (in words),[1]; zinc-inhibited,can reverse this inhibition with calcium
[Zn+2] [zinc],inhibition of FVIIa by zinc (in words),[1],is inhibited by zinc
FVQR-p-nitroanilide [FVQR-p-nitroanilide (pNA)],amidolytic activity of KLK4 for substrate (in words),[2],highest activity
"[Ni+2] [Ni^2+, nickel]",inhibition of KLK4 by metal (in words),[3],KLK4 can be inhibited
"1GRCTKSIPPICFPD14 (bicyclic or more) [SFTI-1, sunflower trypsin inhibitor-1, 14 amino acid bicyclic peptide; backbone cyclization coupled with an intramolecular disulfide linkage]","rank of potency, KLK4 versus trypsin and matriptase (in words)","[4]; discrepancy in reported SFTI-1 inhibition constants (ref 12, 26, 27)",KLK4 is thought to be the least potently inhibited
same,inhibition of KLK4 (in words),[4]; proteolytic activity of KLK4,potently inhibits KLK4 proteolytic activity
same,inhibition of matriptase (in words),[5],inhibit KLK4 in addition to trypsin and matriptase
same,inhibition of trypsin (in words),[6],inhibit KLK4 in addition to trypsin and matriptase
